{
  "source": "paper PMC4753534",
  "about": "(Journal of Medicinal Chemistry, 2015)",
  "key": {"[1]": {"system": "HCV-Luc (HCV JFH-1 strain, genotype 2a)", "assay": "microbe, parasite or virus in culture", "assay_type": "cell-based", "conditions": "Hepatitis C virus, GETYPE2A, values in nM"}, "[2]": {"conditions": "mouse, i.p., 24 h, previously reported, cited from earlier work"}, "[3]": {"target": "H1-histamine receptor (H1HR) (Homo sapiens, UniProt P35367)", "sequence (P35367 whole entry)": "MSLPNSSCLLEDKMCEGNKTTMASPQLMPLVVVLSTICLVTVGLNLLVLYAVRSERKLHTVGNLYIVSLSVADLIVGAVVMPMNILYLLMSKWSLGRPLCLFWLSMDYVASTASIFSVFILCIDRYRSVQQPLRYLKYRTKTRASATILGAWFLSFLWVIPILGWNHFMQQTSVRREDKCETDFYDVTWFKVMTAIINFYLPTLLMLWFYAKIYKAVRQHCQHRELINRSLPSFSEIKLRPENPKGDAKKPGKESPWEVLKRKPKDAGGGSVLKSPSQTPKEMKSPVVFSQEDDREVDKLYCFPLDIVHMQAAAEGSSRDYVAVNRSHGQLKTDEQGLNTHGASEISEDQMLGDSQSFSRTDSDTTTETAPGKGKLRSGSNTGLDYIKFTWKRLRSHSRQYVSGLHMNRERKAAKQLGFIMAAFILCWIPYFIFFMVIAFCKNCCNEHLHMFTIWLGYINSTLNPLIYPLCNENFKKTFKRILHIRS", "assay": "H1HR inhibition assay", "assay_type": "cell-based", "conditions": "read-out: H1HR inhibition"}, "[4]": {"system": "hepatitis B virus, HCV replicon, herpes simplex virus-1, human cytomegalovirus, vaccinia virus, dengue virus, influenza A (H1N1) virus, respiratory syncytial …", "assay_type": "cell-based"}},
  "note": "Read-outs that look alike come from different tables or passages of the source.",
  "data": [
    {"smiles": "NCCOCCN1CCN(C(c2ccccc2)c2ccc(Cl)cc2)CC1", "note": "(racemic) [Rac-23, 2-(2-(4-((4-Chlorophenyl) (Phenyl)methyl)piperazin-1-yl)ethoxy)ethanamine]", "values": [
      {"measurement": "EC50", "setting": "[1]", "value": "< 8", "unit": "nM"}
    ]},
    {"smiles": "Clc1ccc([C@H](c2ccccc2)N2CCNCC2)cc1", "note": "[(S)-1]", "values": [
      {"measurement": "T1/2 Liver", "setting": "[2]; 10 mg/kg", "value": 4.7, "unit": "h"},
      {"measurement": "inhibition at 0.01 µM", "setting": "[3]", "value": "~10", "unit": "%"}
    ]},
    {"smiles": "CN1CCN([C@@H](c2ccccc2)c2ccc(Cl)cc2)CC1", "note": "[(S)-2, reference compound]", "values": [
      {"measurement": "T1/2 Liver", "setting": "[2]; 50 mg/kg", "value": 1.99, "unit": "h"}
    ]},
    {"smiles": "CCN1CCN([C@@H](c2ccccc2)c2ccc(Cl)cc2)CC1", "note": "[(S)-10, (S)-1-((4-Chlorophenyl) (phenyl)methyl)-4-ethylpiperazine]", "values": [
      {"measurement": "antiviral activity in the NIAID antiviral screen", "setting": "[4]", "value": "Little or no antiviral activity was detected"}
    ]},
    {"smiles": "CN1CCN(C(c2ccc(Cl)cc2)c2ccc(Cl)cc2)CC1", "note": "[Compound 30, 1-(Bis(4-chlorophenyl)methyl)-4-methylpiperazine]", "values": [
      {"measurement": "ALT levels", "setting": "Alanine transaminase; mouse serum, 10 mg/kg i.p., most time points except t = 2 and 4 h", "value": "≤ 80", "unit": "U/L"},
      {"measurement": "hepatotoxicity", "setting": "Alanine transaminase; mouse, single 10 mg/kg i.p., ALT also elevated with vehicle only", "value": "no clear hepatotoxicity was detected"}
    ]}
  ]
}
